Measured values from patent publication US6815439B2, “Substituted aza-oxindole derivatives” (SmithKline Beecham Corporation, priority 1999, dated 2004).

Assays:
Type in all cases: biochemical
[1] = target: T1, c-fms (Homo sapiens, UniProt P07333); test: c-fms protein kinase assay; conditions: kinase inhibition, Table 3
T1 construct: The c-fms intracellular domain was expressed from a baculovirus expression system; GST (N); made in house
T1 sequence (P07333 539-972 limits assumed): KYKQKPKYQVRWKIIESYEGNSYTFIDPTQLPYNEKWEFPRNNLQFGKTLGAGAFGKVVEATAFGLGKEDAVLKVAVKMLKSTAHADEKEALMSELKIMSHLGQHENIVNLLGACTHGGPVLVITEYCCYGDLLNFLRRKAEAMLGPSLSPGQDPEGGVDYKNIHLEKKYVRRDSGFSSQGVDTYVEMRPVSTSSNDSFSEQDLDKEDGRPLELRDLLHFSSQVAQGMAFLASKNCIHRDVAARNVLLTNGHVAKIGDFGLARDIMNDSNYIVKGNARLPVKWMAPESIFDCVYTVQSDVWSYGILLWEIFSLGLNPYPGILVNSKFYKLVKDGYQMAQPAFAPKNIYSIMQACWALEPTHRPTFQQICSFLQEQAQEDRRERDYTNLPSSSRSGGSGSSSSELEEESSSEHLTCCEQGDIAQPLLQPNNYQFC
Method: c-fms protein kinase assays utilized the peptide substrate, biotin-[…]-NH2 as the phosphoryl group acceptor. The c-fms intracellular domain was expressed from a baculovirus expression system, as an amino-terminal GST fusion protein, and purified to homogeneity using Glutathione agarose from Sigma Chemical Co. Maximum activation of the enzyme was achieved by preactivation at room temperature for 120 min in the presence of 100 μM ATP and 15 mM MgCl2, This enzyme stock was diluted to 150 nM prior to using in the assay. Typically assays were performed in white, opaque, 96-well plates in a 45 ul assay volume including 15 ul 6% DMSO, with or without compounds, 15 ul of the preactivated, diluted enzyme, and 15 ul of a substrate mixture. Reactions contained 50 mM HEPES, pH 7.5, 1.7 μM ATP, 15 mM MgCl2, 3 μM peptide, 2.5 mM DTT, 50 mM NaCl and 0.15 uCi/assay [□□^32P]ATP. The controls were reactions in the presence (negative controls) or absence (positive controls) of 50 mM EDTA. Reactions were allowed to proceed for 90 min at room temperature. The reaction products were quantified using Scintillation Proximity technolgy. The reactions were quenched by the addition of 200 ul of a solution containing 0.3 mg streptavidin SPA beads from Amersham, 50 mM EDTA, 0.1% TX-100, 50 uM ATP, in PBS, pH7.2 (phosphate buffered solution). Plates were sealed and counted in a Packard Topcount scintillation counter. IC50 values were obtained by fitting raw data to the equation y=Vmax*(1−(x/(k+x))).

[2] = target: CDK2 (Homo sapiens, UniProt P24941); test: CDK2 substrate phosphorylation assay; conditions: kinase inhibition, Table 3
Method: Cyclin dependent protein kinase assays utilized the peptides Biotin-aminohexyl-[…] and Biotin-aminohexyl-[…]-NH2 as phosphoryl group acceptors. CDK2 was expressed utilizing a baculovirus expression system and was partially purified to comprise 20-80% of total protein, with no detectable competing reactions present. Typically, assays were performed by incubating enzyme (0.2-10 nM), with and without inhibitor, one of the two peptide substrates ([…]), [γ-^32P]ATP ([…]), and 10-20 mM Mg^2+ for periods of time generally within the range 10-120 min. Reactions were terminated with 0.2-2 volumes of either 20% acetic acid or 50-100 mM EDTA buffered to pH 7 (substrate consumption <20%). The buffer employed in enzyme assays was either 30 mM HEPES 7.4 containing 0.15 M NaCl and 5% DMSO, the buffer 50 mM MOPS 7.0 containing 0.15 M NaCl and 5% DMSO, or the buffer 100 mM HEPES pH 7.5 containing 0.1 mg/mL BSA and 5% DMSO. Inhibitors were diluted in 100% DMSO prior to addition into the assay. Detection of peptide phosphorylation was accomplished by scintillation counting following either collection of peptide onto phosphocellulose filters (for reactions stopped with acetic acid), collection of peptide in wells of 96 well plates coated with Streptavidin (Pierce) (reactions were stopped with EDTA), or addition of Avidin coated Scintillant impregnated beads (Scintillation Proximity Assays from Amersham; reactions were stopped with EDTA).

[3] = target: T2, VEGFR-2 (Homo sapiens, UniProt P35968); test: VEGFR-2 kinase assay; conditions: kinase inhibition, Table 3; read-out: VEGFR2 (IC50)
T2 construct: The kinase domain of the enzyme was purified to homogeneity from a baculovirus expression system; made in house
Method: The peptide substrate used in the VEGFR-2 assay was biotin-aminohexyl-[…]-NH2. The kinase domain of the enzyme was purified to homogeneity from a baculovirus expression system. The enzyme was preactivated on ice for 15 min in the presence of 100 μM ATP and 20 mM MgCl2, and stored at −80° C. until needed for assay. The activated enzyme was diluted to 0.4 nM into a 60 μl reaction containing 100 mM HEPES, pH 7.5, 5 μM ATP, 10 mM MgCl2, 5 μM peptide, 0.1 mM DTT, 0.05 mg/ml BSA, and an inhibitor at varying concentrations. The controls were reactions in the presence (negative controls) or absence (positive controls) of 50 mM EDTA. Reactions were incubated for 30 min at room temperature, and then quenched by the addition of EDTA to 60 mM in 210 μl. The quenched samples (190 μl) were transferred to a neutravidin-coated plate (Pierce) and incubated at room temperature for 40 min to allow biotinylated peptide to bind to the neutravidin. The unbound components of the reaction were removed by washing with a plate washer, then 200 μl HRP-PY20 anti-phosphotyrosine antibody conjugate was added to each well. After incubation for 40 min, the plate was washed to remove any unbound anitbody. A HRP substrate, K-blue (Neogen) was added and the reaction was quenched with Red Stop (Neogen) after 20 min. The absorbance of the wells was read at A650 in a plate reader. IC50 values were obtained by fitting raw data to A650=VMAX*(1−[I]/IC50+[I])))+b, where b is background.

T2 sequence (P35968 834-1162 limits assumed, species assumed): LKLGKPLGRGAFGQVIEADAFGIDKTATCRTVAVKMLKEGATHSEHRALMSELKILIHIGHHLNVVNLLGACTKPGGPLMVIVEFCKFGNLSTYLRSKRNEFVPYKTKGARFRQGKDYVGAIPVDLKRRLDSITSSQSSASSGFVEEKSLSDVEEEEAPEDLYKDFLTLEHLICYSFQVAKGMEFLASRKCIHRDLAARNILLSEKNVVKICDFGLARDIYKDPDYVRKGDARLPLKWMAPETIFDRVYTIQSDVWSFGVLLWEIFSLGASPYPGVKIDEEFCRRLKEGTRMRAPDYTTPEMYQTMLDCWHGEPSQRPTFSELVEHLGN

| IC50 [1] [nM] | IC50 [2] [nM] | IC50 [3] [nM] | SMILES |
| --- | --- | --- | --- |
| 1000 to 10000 | 10 to 100 | 100 to 1000 | CCOC(=O)c1cnc2c(c1)C(=CNc1ccc(S(N)(=O)=O)cc1)C(=O)N2 [Example 23, Ethyl 3-{[4-(aminosulfonyl)anilino]methylidene}-2-oxo-1,2-dihydro-3H-pyrrolo[2,3-b]pyridine-5-carboxylate] |
| 1000 to 10000 | 10 to 100 | 10 to 100 | CCOC(=O)c1cnc2c(c1)C(=CNc1ccc3cn[nH]c3c1)C(=O)N2 [Example 24, Ethyl 3-[(1H-indazol-6-ylamino)methylidene]-2-oxo-1,2-dihydro-3H-pyrrolo[2,3-b]pyridine-5-carboxylate] |
